# Assay results reported in ChEMBL document CHEMBL4823305, “Design, synthesis and antibacterial evaluation of novel 3-O-substituted 15-membered azalides possessing 1,2,3-triazole side chains” (2021).
# How the values were obtained:
# Format in all cases: functional
# Bacillus subtilis = test: Antibacterial activity against penicillin-susceptible Bacillus subtilis ATCC9372 by broth microdilution method
# Klebsiella pneumoniae = test: Antibacterial activity against Klebsiella pneumoniae ATCC10031 by broth microdilution method
# Staphylococcus aureus [1] = test: Antibacterial activity against methicillin-resistant Staphylococcus aureus ATCC43300 by broth microdilution method
# Enterococcus faecium = test: Antibacterial activity against clinical isolate erythromycin-resistant Enterococcus faecium by broth microdilution method
# Staphylococcus aureus [2] = test: Antibacterial activity against penicillin-resistant Staphylococcus aureus by broth microdilution method
# Staphylococcus aureus [3] = test: Antibacterial activity against erythromycin-susceptible Staphylococcus aureus ATCC25923 by broth microdilution method
# Enterococcus faecalis = test: Antibacterial activity against vancomycin-susceptible Enterococcus faecalis ATCC29212 by broth microdilution method
Structure (SMILES),MIC (Bacillus subtilis),MIC (Klebsiella pneumoniae),MIC (Staphylococcus aureus [1]),MIC (Enterococcus faecium),MIC (Staphylococcus aureus [2]),MIC (Staphylococcus aureus [3]),MIC (Enterococcus faecalis)
CC[C@H]1OC(=O)[C@H](C)[C@@H](OC(=O)NNC(=O)Cn2cc(-c3ccccc3OC)nn2)[C@H](C)[C@@H](O[C@@H]2O[C@H](C)C[C@H](N(C)C)[C@H]2O)[C@](C)(O)C[C@@H](C)CN(C)[C@H](C)[C@H]2OC(=O)O[C@@]21C,128 µg/mL,64 µg/mL,256 µg/mL,128 µg/mL,256 µg/mL,64 µg/mL,64 µg/mL
CC[C@H]1OC(=O)[C@H](C)[C@@H](OC(=O)NNC(=O)Cn2cc(-c3ccccc3)nn2)[C@H](C)[C@@H](O[C@@H]2O[C@H](C)C[C@H](N(C)C)[C@H]2O)[C@](C)(O)C[C@@H](C)CN(C)[C@H](C)[C@H]2OC(=O)O[C@@]21C,128 µg/mL,32 µg/mL,256 µg/mL,64 µg/mL,256 µg/mL,32 µg/mL,16 µg/mL
CC[C@H]1OC(=O)[C@H](C)[C@@H](O[C@H]2C[C@@](C)(OC)[C@@H](O)[C@H](C)O2)[C@H](C)[C@@H](O[C@@H]2O[C@H](C)C[C@H](N(C)C)[C@H]2O)[C@](C)(O)C[C@@H](C)CN(C)[C@H](C)[C@@H](O)[C@]1(C)O [AZITHROMYCIN],< 0.25 µg/mL,2 µg/mL,> 256 µg/mL,256 µg/mL,> 256 µg/mL,< 0.25 µg/mL,4 µg/mL
CCOc1ccc(-c2cn(CC(=O)NNC(=O)O[C@H]3[C@H](C)[C@@H](O[C@@H]4O[C@H](C)C[C@H](N(C)C)[C@H]4O)[C@](C)(O)C[C@@H](C)CN(C)[C@H](C)[C@H]4OC(=O)O[C@]4(C)[C@@H](CC)OC(=O)[C@@H]3C)nn2)cc1,64 µg/mL,32 µg/mL,128 µg/mL,128 µg/mL,128 µg/mL,32 µg/mL,16 µg/mL
CCCc1ccc(-c2cn(CC(=O)NNC(=O)O[C@H]3[C@H](C)[C@@H](O[C@@H]4O[C@H](C)C[C@H](N(C)C)[C@H]4O)[C@](C)(O)C[C@@H](C)CN(C)[C@H](C)[C@H]4OC(=O)O[C@]4(C)[C@@H](CC)OC(=O)[C@@H]3C)nn2)cc1,16 µg/mL,16 µg/mL,64 µg/mL,32 µg/mL,64 µg/mL,16 µg/mL,8 µg/mL
CC[C@H]1OC(=O)[C@H](C)[C@@H](OC(=O)NNC(=O)Cn2cc(-c3ccc(OC)cc3)nn2)[C@H](C)[C@@H](O[C@@H]2O[C@H](C)C[C@H](N(C)C)[C@H]2O)[C@](C)(O)C[C@@H](C)CN(C)[C@H](C)[C@H]2OC(=O)O[C@@]21C,128 µg/mL,32 µg/mL,256 µg/mL,128 µg/mL,256 µg/mL,64 µg/mL,64 µg/mL
CC[C@H]1OC(=O)[C@H](C)[C@@H](OC(=O)NNC(=O)Cn2cc(-c3ccc(F)cc3)nn2)[C@H](C)[C@@H](O[C@@H]2O[C@H](C)C[C@H](N(C)C)[C@H]2O)[C@](C)(O)C[C@@H](C)CN(C)[C@H](C)[C@H]2OC(=O)O[C@@]21C,64 µg/mL,64 µg/mL,256 µg/mL,128 µg/mL,128 µg/mL,64 µg/mL,32 µg/mL
CC[C@H]1OC(=O)[C@H](C)[C@@H](OC(=O)NNC(=O)Cn2cc(-c3ccccc3Cl)nn2)[C@H](C)[C@@H](O[C@@H]2O[C@H](C)C[C@H](N(C)C)[C@H]2O)[C@](C)(O)C[C@@H](C)CN(C)[C@H](C)[C@H]2OC(=O)O[C@@]21C,64 µg/mL,32 µg/mL,128 µg/mL,64 µg/mL,256 µg/mL,32 µg/mL,64 µg/mL
CC[C@H]1OC(=O)[C@H](C)[C@@H](OC(=O)NNC(=O)Cn2cc(-c3cccc(C)c3)nn2)[C@H](C)[C@@H](O[C@@H]2O[C@H](C)C[C@H](N(C)C)[C@H]2O)[C@](C)(O)C[C@@H](C)CN(C)[C@H](C)[C@H]2OC(=O)O[C@@]21C,64 µg/mL,16 µg/mL,128 µg/mL,128 µg/mL,256 µg/mL,64 µg/mL,32 µg/mL
CC[C@H]1OC(=O)[C@H](C)[C@@H](OC(=O)NNC(=O)Cn2cc(-c3cccc([N+](=O)[O-])c3)nn2)[C@H](C)[C@@H](O[C@@H]2O[C@H](C)C[C@H](N(C)C)[C@H]2O)[C@](C)(O)C[C@@H](C)CN(C)[C@H](C)[C@H]2OC(=O)O[C@@]21C,128 µg/mL,32 µg/mL,256 µg/mL,128 µg/mL,256 µg/mL,64 µg/mL,32 µg/mL
CC[C@H]1OC(=O)[C@H](C)[C@@H](OC(=O)NNC(=O)Cn2cc(-c3ccc(Br)cc3)nn2)[C@H](C)[C@@H](O[C@@H]2O[C@H](C)C[C@H](N(C)C)[C@H]2O)[C@](C)(O)C[C@@H](C)CN(C)[C@H](C)[C@H]2OC(=O)O[C@@]21C,32 µg/mL,64 µg/mL,64 µg/mL,64 µg/mL,128 µg/mL,32 µg/mL,32 µg/mL
CC[C@H]1OC(=O)[C@H](C)[C@@H](OC(=O)NNC(=O)Cn2cc(-c3cccc(F)c3)nn2)[C@H](C)[C@@H](O[C@@H]2O[C@H](C)C[C@H](N(C)C)[C@H]2O)[C@](C)(O)C[C@@H](C)CN(C)[C@H](C)[C@H]2OC(=O)O[C@@]21C,64 µg/mL,64 µg/mL,256 µg/mL,128 µg/mL,256 µg/mL,32 µg/mL,32 µg/mL
CCCOc1ccc(-c2cn(CC(=O)NNC(=O)O[C@H]3[C@H](C)[C@@H](O[C@@H]4O[C@H](C)C[C@H](N(C)C)[C@H]4O)[C@](C)(O)C[C@@H](C)CN(C)[C@H](C)[C@H]4OC(=O)O[C@]4(C)[C@@H](CC)OC(=O)[C@@H]3C)nn2)cc1,32 µg/mL,32 µg/mL,64 µg/mL,64 µg/mL,64 µg/mL,16 µg/mL,16 µg/mL
CC[C@H]1OC(=O)[C@H](C)[C@@H](O[C@H]2C[C@@](C)(OC)[C@@H](O)[C@H](C)O2)[C@H](C)[C@@H](O[C@@H]2O[C@H](C)C[C@H](N(C)C)[C@H]2O)[C@](C)(OC)C[C@@H](C)C(=O)[C@H](C)[C@@H](O)[C@]1(C)O [CLARITHROMYCIN],< 0.25 µg/mL,4 µg/mL,> 256 µg/mL,256 µg/mL,> 256 µg/mL,< 0.25 µg/mL,1 µg/mL
CC[C@H]1OC(=O)[C@H](C)[C@@H](OC(=O)NNC(=O)Cn2cc(-c3cccc(N)c3)nn2)[C@H](C)[C@@H](O[C@@H]2O[C@H](C)C[C@H](N(C)C)[C@H]2O)[C@](C)(O)C[C@@H](C)CN(C)[C@H](C)[C@H]2OC(=O)O[C@@]21C,> 128 µg/mL,128 µg/mL,> 256 µg/mL,128 µg/mL,> 256 µg/mL,128 µg/mL,> 128 µg/mL
CC[C@H]1OC(=O)[C@H](C)[C@@H](OC(=O)NNC(=O)Cn2cc(-c3cccc(Br)c3)nn2)[C@H](C)[C@@H](O[C@@H]2O[C@H](C)C[C@H](N(C)C)[C@H]2O)[C@](C)(O)C[C@@H](C)CN(C)[C@H](C)[C@H]2OC(=O)O[C@@]21C,64 µg/mL,32 µg/mL,128 µg/mL,128 µg/mL,256 µg/mL,64 µg/mL,32 µg/mL
CCc1ccc(-c2cn(CC(=O)NNC(=O)O[C@H]3[C@H](C)[C@@H](O[C@@H]4O[C@H](C)C[C@H](N(C)C)[C@H]4O)[C@](C)(O)C[C@@H](C)CN(C)[C@H](C)[C@H]4OC(=O)O[C@]4(C)[C@@H](CC)OC(=O)[C@@H]3C)nn2)cc1,32 µg/mL,16 µg/mL,64 µg/mL,32 µg/mL,64 µg/mL,16 µg/mL,32 µg/mL
CC[C@H]1OC(=O)[C@H](C)[C@@H](OC(=O)NNC(=O)Cn2cc(-c3cccc(Cl)c3)nn2)[C@H](C)[C@@H](O[C@@H]2O[C@H](C)C[C@H](N(C)C)[C@H]2O)[C@](C)(O)C[C@@H](C)CN(C)[C@H](C)[C@H]2OC(=O)O[C@@]21C,64 µg/mL,16 µg/mL,128 µg/mL,64 µg/mL,256 µg/mL,64 µg/mL,16 µg/mL
